In PubChem BioAssay AID2060889 (Molecular Pharmacology Branch, DTP, NCI, 2025):
Values joined by “and” are separate entries in the source; they are usually repeats but may differ in a detail not shown here. Identical values can stand only once.

System: LG0567-F671-PDC complex spheroids viability
Assay: Anticancer human tumor LG0567-F671-PDC patient-derived lung adenocarcinoma cell line growth inhibition [RAS]
Conditions: for viability, T/C: stronger effect = lower value; active means viability on the fitted dose curve at most 10% of control; inactive means the rest
Procedure, shortened: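 Multi-cell-type spheroids: tumor cells plus HUVEC endothelial cells and mesenchymal stem cells. RAS-pathway inhibitors were combined with targeted agents, each dosed in half-log steps down from clinical Cmax, or from 10 microM when Cmax was unknown.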

[1] = curve of first compound, second compound 0.000949 µM
[2] = curve of first compound, second compound 0.003 µM
[3] = curve of first compound, second compound 0.00949 µM
[4] = curve of first compound, second compound 0.03 µM
[5] = curve of first compound, second compound 0.0949 µM
[6] = curve of first compound, second compound 0.3 µM
[7] = second compound 0.000949 µM, first compound 0.0316 µM
[8] = second compound 0.000949 µM, first compound 0.1 µM
[9] = second compound 0.000949 µM, first compound 0.316 µM
[10] = second compound 0.000949 µM, first compound 1 µM
[11] = second compound 0.000949 µM, first compound 3.16 µM
[12] = second compound 0.000949 µM, first compound 10 µM
[13] = second compound 0.003 µM, first compound 0.0316 µM
[14] = second compound 0.003 µM, first compound 0.1 µM
[15] = second compound 0.003 µM, first compound 0.316 µM
[16] = second compound 0.003 µM, first compound 1 µM
[17] = second compound 0.003 µM, first compound 3.16 µM
[18] = second compound 0.003 µM, first compound 10 µM
[19] = second compound 0.00949 µM, first compound 0.0316 µM
[20] = second compound 0.00949 µM, first compound 0.1 µM
[21] = second compound 0.00949 µM, first compound 0.316 µM
[22] = second compound 0.00949 µM, first compound 1 µM
[23] = second compound 0.00949 µM, first compound 3.16 µM
[24] = second compound 0.00949 µM, first compound 10 µM
[25] = second compound 0.03 µM, first compound 0.0316 µM
[26] = second compound 0.03 µM, first compound 0.1 µM
[27] = second compound 0.03 µM, first compound 0.316 µM
[28] = second compound 0.03 µM, first compound 1 µM
[29] = second compound 0.03 µM, first compound 3.16 µM
[30] = second compound 0.03 µM, first compound 10 µM
[31] = second compound 0.0949 µM, first compound 0.0316 µM
[32] = second compound 0.0949 µM, first compound 0.1 µM
[33] = second compound 0.0949 µM, first compound 0.316 µM
[34] = second compound 0.0949 µM, first compound 1 µM
[35] = second compound 0.0949 µM, first compound 3.16 µM
[36] = second compound 0.0949 µM, first compound 10 µM
[37] = second compound 0.3 µM, first compound 0.0316 µM
[38] = second compound 0.3 µM, first compound 0.1 µM
[39] = second compound 0.3 µM, first compound 0.316 µM
[40] = second compound 0.3 µM, first compound 1 µM
[41] = second compound 0.3 µM, first compound 3.16 µM
[42] = second compound 0.3 µM, first compound 10 µM
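Further: spheroids exposed to compound for seven days before readout.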
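Wherever IC50 is given: luminescence signal used as a proxy for viable cells.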

Cc1nc(N2CCC3(CC2)COC(C)C3N)c(CO)nc1Sc1ccnc(N)c1Cl (stereo unspecified) + CCn1c(-c2cc(N3CCN(C)CC3)cnc2C(C)OC)c2c3cc(ccc31)-c1csc(n1)CC(NC(=O)C1CC1C)C(=O)N1CCCC(N1)C(=O)OCC(C)(C)C2
active: viability, T/C [8] 9.61% | viability, T/C [9] 5.09% | viability, T/C [10] 3.4% | viability, T/C [11] 2.1% | viability, T/C [12] 1.79% | viability, T/C [13] 6.69% | viability, T/C [14] 5.75% | viability, T/C [15] 2.58% | viability, T/C [16] 2.04% | viability, T/C [17] 1.52% | viability, T/C [18] 1.27% | viability, T/C [19] 3.68% | viability, T/C [20] 3.22% | viability, T/C [21] 1.87% | viability, T/C [22] 1.37% | viability, T/C [23] 1.14% | viability, T/C [24] 1.07% | viability, T/C [25] 2.35% | viability, T/C [26] 1.85% | viability, T/C [27] 1.58% | viability, T/C [28] 1.41% | viability, T/C [29] 1.06% | viability, T/C [30] 0.91% | viability, T/C [31] 2.09% | viability, T/C [32] 1.47% | viability, T/C [33] 1.37% | viability, T/C [34] 0.88% | viability, T/C [35] 0.94% | viability, T/C [36] 0.69% | viability, T/C [37] 1.86% | viability, T/C [38] 1.2% | viability, T/C [39] 0.98% | viability, T/C [40] 0.98% | viability, T/C [41] 0.68% | viability, T/C [42] 0.66%
< 31.6 nM: IC50 [1] | IC50 [2] | IC50 [3] | IC50 [4] | IC50 [5] | IC50 [6]
inactive: viability, T/C [7] 13.4%

CCC(CC)c1cc(NC2CCC(N)C2)n2nccc2n1 (stereo unspecified)
1.86 µM [middle of 4 runs]: IC50 (curve of compound)
active: viability, T/C (compound 3.16 µM) 5.03% [middle of 4 runs] | viability, T/C (compound 10 µM) 0.67% [middle of 4 runs]
inactive: viability, T/C (compound 0.0316 µM) 101% [middle of 4 runs] | viability, T/C (compound 0.1 µM) 106% [middle of 4 runs] | viability, T/C (compound 0.316 µM) 100% and 103% (2×) and 138% | viability, T/C (compound 1 µM) 111% and 103% (2×) and 118%

CC1(O)CCCC1n1c(=O)c(C(F)F)cc2cnc(NC3CCN(S(C)(=O)=O)CC3)nc21 (stereo unspecified) + CCn1c(-c2cccnc2C(C)OC)c2c3cc(ccc31)N1CCOC(CC(NC(=O)C(C(C)C)N(C)C(=O)C3(F)CCN(C(=O)C#CC(C)(C)N(C)C)CC3)C(=O)N3CCCC(N3)C(=O)OCC(C)(C)C2)C1
inactive: viability, T/C [7] 17.6% | viability, T/C [8] 18.2% | viability, T/C [9] 18.2% | viability, T/C [10] 21.6% | viability, T/C [11] 22.6% | viability, T/C [12] 18% | viability, T/C [13] 17.6% | viability, T/C [14] 16.9% | viability, T/C [15] 18.5% | viability, T/C [16] 21.3% | viability, T/C [17] 24.5% | viability, T/C [18] 16.8% | viability, T/C [19] 15.8% | viability, T/C [20] 16.7% | viability, T/C [21] 20.2% | viability, T/C [22] 20.4% | viability, T/C [23] 20.7% | viability, T/C [24] 16.2% | viability, T/C [25] 14.5% | viability, T/C [26] 15.2% | viability, T/C [27] 19.5% | viability, T/C [28] 19.1% | viability, T/C [29] 20.2% | viability, T/C [30] 16.3% | viability, T/C [31] 13.5% | viability, T/C [32] 15.5% | viability, T/C [33] 16.1% | viability, T/C [34] 17.1% | viability, T/C [35] 18.6% | viability, T/C [36] 15.6% | viability, T/C [37] 11.8% | viability, T/C [38] 12.4% | viability, T/C [39] 14.1% | viability, T/C [40] 16.2% | viability, T/C [41] 17.4% | viability, T/C [42] 11.8%
< 31.6 nM: IC50 [1] | IC50 [2] | IC50 [3] | IC50 [4] | IC50 [5] | IC50 [6]
